Data taken from US9416145B2, “Compositions and methods for inhibiting activity of hypoxia-inducible transcription factor complex and its use for treatment of tumors” (priority 2012, dated 2016).

Columns and labels:
Glut1 mRNA in A549 cells = assay: qRT-PCR of Glut1 mRNA in A549 cells; format: cell-based; conditions: 300 μM DFO
Protocol: (§1) FIG. 13 mRNA levels of three HIF1α inducible genes: VEGF, c-Met and Glut1 in A549 cells after treatment with LS72. Data from qRT-PCR experiments showing mRNA levels of three HIF1α inducible genes, VEGF, c-Met and Glut1 in A549 after treatment of the cells in a medium with 0.2% serum with LS72 (400 nM). Hypoxia was induced 300 μM by DFO. Error bars are ±s.e.m for the experiments performed in […]. Error bars are ±s.e.m. of experiments performed in triplicate. ***P<0.001, ** P<0.01, t test.
FIG. 17 qRT-PCR data for Glut1mRNA in 85% confluent A549 cells treated with LS72 at three different concentrations. qRT-PCR assays were performed in order to determine the mRNA levels for Glut1 in A549 cell line treated with LS72 at concentrations: 100 nM, 400 nM, 1600 nM. Hypoxia was induced with DFO (300 μM). Error bars are ±sem for the experiments performed in triplicate. Error bars are ±s.e.m. of experiments performed in triplicate. *** P<0.001, ** P<0.01, t test.
(§2) After tests with various serum levels in the media and hypoxia induction methods, the conditions that worked remarkably and consistently well for the induction of HIF1α dependent genes were to keep A549 cells in 2% serum followed by treating cells with compound or control in the media with 0.2% serum for 48 h (FIG. 13). […]

[1] = test system: global transcript levels (28,869 transcripts) in MCF7 cells; assay: Gene expression profiling with Affymetrix Human Gene ST 1.0 Arrays; format: cell-based
Source text: Since the target proteins p300 and CBP are pleiotropic multidomain coactivators, their CH1 regions contain binding sites for multiple transcription factors. One potential concern of the use of ETPs for gene regulation is specificity, because inhibiting the interaction between CBP/p300 and transcription factors other than HIF1α may result in large numbers of affected genes. To rule out nonspecific genome-wide effects of ETPs, we conducted in vitro gene expression profiling experiments with LS72 using Affymetrix Human Gene ST 1.0 Arrays containing oligonucleotide sequences representing 28,869 transcripts.^67,68
In order to interrogate cellular genome for global effects, MCF7 cells treated with LS72 at 400 nM were used. Treatment of cells with LS72 at a concentration of 400 nM affected the expression of only 178 genes at ≧2.0 fold levels (FIG. 20). By comparison, treatment with DFO alone changed levels of 329 genes ≧2.0 fold. […] In cells treated with LS72 under DFO-induced hypoxia conditions, we identified 190 genes were affected by this compound. Clustering analysis was performed to identify similarities in the expression profiles between different treatments (FIG. 19).

[2] = MTT cytotoxicity assay in MCF7 cells; format: cell-based; conditions: human, MCF7, 24 h treatment
Protocol: FIG. 10 MTT cytotoxicity assay for LS72 in MCF7 cells. Cells were maintained in RPMI-1640 media supplemented with 10% FBS. Cells were treated with different concentrations of LS72 for 24 hours and the amount of purple formazan formed was determined via spectrophotometry.
Based on this EC50 value of LS72 in MCF7 cells we chose to measure its effect on HIF inducible transcription at a maximum concentration of 400 nM in MCF7 cells. This is important in order to minimize the nonspecific effects on mRNA levels due to reduction in cell viability.

c-Met mRNA in A549 cells = assay: qRT-PCR of c-Met mRNA in A549 cells; format: cell-based; conditions: 300 μM DFO
Protocol: as §1
FIG. 16 mRNA levels for c-Met in A549 cell line showing dose response to LS72 at concentrations of 100 nM, 400 nM, 1600 nM. qRT-PCR was used to determine the mRNA levels of c-Met Hypoxia was induced with DFO (300 μM). Error bars are ±sem for the experiments performed in triplicate. Error bars are ±s.e.m. of experiments performed in triplicate. *** P<0.001, **P<0.01, # P<0.1, t test.
as §2

[3] = test system: VEGF protein in MCF7 cells; assay: Western blot of VEGF protein levels in MCF7 cells; format: cell-based, human; conditions: MCF7, 400 nM, 300 μM DFO
Protocol: Western blot analysis of VEGF and c-Met protein levels. MCF7 and MDA-MB-231 cells were plated in 60 mm diameter cell culture dishes (BD Falcon) to a density of 1.0×10^6 cells/mL. […] All samples contained a final concentration 0.1-0.2% v/v of DMSO. After a 6 hour incubation period, hypoxia was induced with 300 μM DFO in MCF7 and with […] in MDA-MB-231 cells. Samples were incubated for an additional 18 hours. Total cellular proteins were extracted from the cells using cell lysis buffer according to manufacturer's protocol (Cell Signaling). Protein concentrations were measured with BCA Protein assay kit (Pierce/Thermo Scientific). Equal amounts of protein samples were subjected to SDS-PAGE and electroblotted to PVDF membrane (Bio-Rad). These were probed first with an anti-VEGF mouse monoclonal (sc-57496, Santa Cruz Biotechnology) or anti c-Met rabbit polyclonal antibody (sc-10, Santa Cruz Biotechnology), stripped with Restore Western Blot Stripping Buffer (Pierce/Thermo Scientific) and re-probed with a rabbit polyclonal anti-β-actin antibody (4867, Cell Signaling).
After washing with tris-buffered saline—Tween 20 (TBST) solution, the membranes were incubated with horseradish peroxidase (HRP)-conjugated secondary antibodies (Santa Cruz Biotechnology). Signals were detected by using SuperSignal chemiluminescent kit (Pierce/Thermo Scientific).

[4] = A549 85% confluent, 100 nM, 400 nM, 1600 nM
[5] = A549, LS72 400 nM, 0.2% serum, 48 h
[6] = MCF7, hypoxic induction with DFO (300 μM), LS72 400 nM

CN1C(=O)[C@]2(Cc3ccc(CCc4ccc(C[C@@]56SS[C@@](CO)(C(=O)N5C)N(C)C6=O)cc4)cc3)SS[C@@]1(CO)C(=O)N2C (racemic) [LS72, 4,4′-((ethane-1,2-diylbis(4,1-phenylene))bis(methylene))bis(1-(hydroxymethyl)-5,7-dimethyl-2,3-dithia-5,7-diazabicyclo[2.2.2]octane-6,8-dione)]
Glut1 hypoxic transcriptional up-regulation, dose response (Glut1 mRNA in A549 cells; [4]): dose dependent decrease
reduction of Glut1 mRNA levels (Glut1 mRNA in A549 cells; [5]): more than 60%
number of genes downregulated ≧2.0 fold ([1]; MCF7, LS72 400 nM): 88 genes
number of genes upregulated by ≧2.0 fold ([1]; MCF7, LS72 400 nM): 90 genes
number of genes with expression affected at ≧2.0 fold levels ([1]; MCF7, LS72 400 nM): 178 genes
number of genes affected under DFO-induced hypoxia ([1]; MCF7, LS72 under DFO-induced hypoxia conditions): 190 genes
CAV1 (Entrez 857) expression change, microarray [1, 6]: −1.3
LOXL2 (Entrez 4017) expression change, microarray [1, 6]: −1.4
MET (Entrez 4233) expression change, microarray [1, 6]: −2.2
SLC5A6 (Entrez 8884) expression change, microarray [1, 6]: −2.4
SLC5A8 (Entrez 160728) expression change, microarray [1, 6]: −1.4
SLC7A2 (Entrez 6542) expression change, microarray [1, 6]: −2.5
SLC9A2 (Entrez 6549) expression change, microarray [1, 6]: −1.8
SLC9A3R1 (Entrez 9368) expression change, microarray [1, 6]: −1.6
SLC25A12 (Entrez 8604) expression change, microarray [1, 6]: −1.8
SLC25A15 (Entrez 10166) expression change, microarray [1, 6]: −1.5
SLC26A2 (Entrez 1836) expression change, microarray [1, 6]: −1.4
SLC27A4 (Entrez 10999) expression change, microarray [1, 6]: −1.4
SLC35A1 (Entrez 10559) expression change, microarray [1, 6]: −2.2
SLC35D1 (Entrez 23169) expression change, microarray [1, 6]: −3.1
SLC38A9 (Entrez 153129) expression change, microarray [1, 6]: −1.5
SLC39A11 (Entrez 201266) expression change, microarray [1, 6]: −1.9
TFRC (Entrez 7037) expression change, microarray [1, 6]: −1.5
TGFB3 (Entrez 7043) expression change, microarray [1, 6]: −1.5
EC50 at 24 h [2]: 547 nM
c-Met transcriptional upregulation, dose response (c-Met mRNA in A549 cells; [4]): Dose-dependent decrease
c-Met mRNA level (in words) (c-Met mRNA in A549 cells; [5]): significantly downregulated, essentially reaching its normoxic levels
VEGF protein levels (western blot) [3]: significant downregulation
